Legend:
[1] = system: hamster INGAP 5′-regulatory region; test: β-galactosidase reporter assay with hamster INGAP 5′-regulatory region fragments in transfected 293T cells; format: cell-based; conditions: human 293T cells
Excerpt: Promoter analysis of INGAP identified a number of potential promoter-proximal regulatory sites including the consensus transcription factor binding sites; cAMP response element (CRE), AP-1 and STAT. Promoter-fragment reporter-gene constructs were transiently transfected into 293T cells and co-transfection of secretory alkaline phosphatase was used to normalize for transfection efficiency.
(§1) Reporter constructs containing INGAP 5′-regulatory region fragments 2—3sP (SEQ ID NO: 37), 2—3dP (SEQ ID NO: 38), 2—3pP (SEQ ID NO: 36), 14—3P (SEQ ID NO: 34), 16—3P (SEQ ID NO: 31), or 19—3P (SEQ ID NO: 23) were transfected into human cells. The pβGal-Basic plasmid without the hamster INGAP DNA was also transfected into human cells as a control to measure the level of endogenous reporter activity. Two days following transfection, the cells were treated with PMA for 24 hours or were untreated. To determine the level of promoter activity, the amount of β-galactosidase gene product was determined using a luminescent assay for β-galactosidase.
as §1, with “construct” for “constructs”, “DNA nucleotides 2030 to 3120 was” for “fragments 2—3sP (SEQ ID NO: 37), 2—3dP (SEQ ID NO: 38), 2—3pP (SEQ ID NO: 36), 14—3P (SEQ ID NO: 34), 16—3P (SEQ ID NO: 31), or 19—3P (SEQ ID NO: 23) were”, “LIF” for “PMA”
To map the approximate location of PMA-initiated or LIF-initiated transcription factor binding different fragments of the hamster INGAP 5′-regulatory region were cloned into pβGal-Basic. The fragments cloned into the reporter construct were 2—3sP (SEQ ID NO: 37), 2—3dP (SEQ ID NO: 38), 2—3pP (SEQ ID NO: 36), 14—3P (SEQ ID NO: 34), 16—3P (SEQ ID NO: 31), or 19—3P (SEQ ID NO: 23). […] To determine the level of promoter activity, the amount of β-galactosidase gene product was determined using a luminescent assay for β-galactosidase. […]

INGAP gene = test: Northern RNA analysis of INGAP gene upregulation in AR42J cells; format: cell-based; conditions: rat AR42J cells; IL-6 1000 U/ml, 24 hours; FIG. 12
Protocol: To determine if INGAP RNA levels increase after stimulation with a cytokine that signals through STAT, rat amphocrine pancreatic cells, AR42J were treated with IL-6 (1000 U/ml) for 24 hours. Total RNA was extracted from the treated and untreated cells using techniques well known in the art, e.g., using TRIZOL® reagent.
Equal amounts of total RNA (10 μg) were loaded in 2.5% formaldehyde gel and electrophoresed for 4 hours at 70V with a constant circulation of the buffer using a circulating pump. The gel was photographed and washed with water twice at room temperature and soaked in 20×SSC. The gel was transferred to a nylon membrane (Amersham) in 20×SSC overnight following a standard procedure. The membrane was washed with 20×SSC to remove any agar that might have attached to the membrane and baked for 4 hours at […].
One hundred nanograms of hamster INGAP cDNA was labeled using Random Prime Labeling kit (Roche-BMB) and alpha-P^32 dCTP (ICN). Approximately 20 million counts were used for hybridization in 20 ml hybridization buffer following the standard procedure at 42° for overnight. The blot was washed as follows: 2-times at room temperature with 2×SSC for 10 minutes each; 2-times at 42° with 2×SSC for 10 minutes each; 2-times at 55° with 1×SSC for 10 minutes each. The membrane was exposed to the film (XOMAT-Kodak) and kept at −80° C. overnight before developing.

For “LIF: human leukemia inhibitory factor (hLIF)”, the “promoter activity (β-galactosidase reporter, luminescent assay)” value (“promoter activity” below) ([1]; construct with INGAP 5′-regulatory region nucleotides 2030 to 3120, treated 24 hours, two days after transfection, FIG. 9B) was “increase the activity of the 5′-regulatory region of mammalian INGAP” and the “promoter activity” value ([1]; constructs 2_3sP, 2_3dP, 2_3pP, 14_3P, 16_3P, 19_3P, LIF 1, 10 or 30 ng/ml, 24 hours, FIG. 11) was “activated the cell reporter constructs”.
For `CCCCCCCCCCCCCC(=O)O[C@@H]1[C@@H](C)[C@@]2(O)[C@@H](C=C(CO)C[C@]3(O)C(=O)C(C)=C[C@@H]23)[C@@H]2C(C)(C)[C@]12OC(C)=O` [PMA, phorbol myristate acetate, reference compound], the “promoter activity” value ([1]; constructs 2_3sP, 2_3dP, 2_3pP, 14_3P, 16_3P, 19_3P, PMA 6, 17, 50, 100 or 300 ng/ml, 24 hours, FIG. 10) was “activated the cell reporter constructs”.
In the case of “IL-6: cytokine that signals through STAT”, the “INGAP gene expression (RNA, Northern analysis)” value (INGAP gene) is reported as “increase in INGAP gene expression”.
